This passage reports inhibition results from PMC7614683, “A small molecule PI3Kα activator for cardioprotection and neuroregeneration” (Nature, 2023).

What is called inhibition is the drop in the measured response relative to a control, in per cent.

Test in all cases: SelectScreen Z-LYTE kinase activity assay (SI Table 6)
Format in all cases: biochemical

Assay [1] has as its target protein kinases of the Z-LYTE panel (Homo sapiens, UniProt Q7KZI7). Here is the method: (§1) 133 protein kinases and 7 lipid kinases were counterscreened, with 1938 used at 1 μM, using the Adapta, Lantha and Z-LYTE assays (SelectScreen Kinase Profiling Service; Thermofisher – experimental details of these assays can be found here: https://www.thermofisher.com/uk/en/home/industrial/pharma-biopharma/drug-discovery-development/target-and-lead-identification-and-validation/kinasebiology/kinase-activity-assays.html. The tree represention in KinMap[59] generated courtesy of Cell Signaling Technology, Inc. (www.cellsignal.com). mTORC1 (mTOR/RAPTOR/LST8) protein complex and ATM kinase and substrates were produced as previously described[57],[60]. Screening of 1938 was conducted using SuperSep Phos-Tag 50 μmol/l 100 x 100 x 6.6 mm 17-well (192-18001/199-18011) gels. For ATM assays, 100 nM ATM was incubated for 30 min at 30°C with 5 μM GST-p53 and 1 mM ATP, in the absence or presence of 200 μM 1938 in ATM Kinase Buffer (50 mM HEPES pH 7.5, 100 mM NaCl, 10% glycerol, 2 mM […], 5 mM MgCl2). As a positive control for ATM activation, the same reaction was carried out with 100 nM ATM/5 μM GST-p53/1 mM ATP in the presence of 100 nM Mre11-Rad50-Nbs1 (MRN) complex, a known activator of ATM[61]. For mTORC1 assays, 50 nM mTORC1 complex (mTOR/LST8/RAPTOR) was incubated for 3 h at 30°C with 15 μM 4E-BP1, 10 mM MgCl2 and 250 μM ATP, in the absence or presence of 200 μM 1938. As a ‘positive’ control, a higher concentration (150 nM) of mTORC1 complex (mTOR/LST8/RAPTOR) was incubated for 3 h at 30°C with 15 μM 4E-BP1, 10 mM MgCl2 and 250 μM ATP. Kinase reactions were quenched by addition of SDS-PAGE Loading Buffer (as per manufacturer’s instructions) and freezing at -20°C before being run on the Phos-tag gels at 150 V for 90 min. Gels were then stained using InstantBlue™ Coomassie, and quantified using BioRad Image Lab Software. Kinase assays were carried out in triplicate.

Assay [2] concerns the target protein kinases of the Z-LYTE panel (Homo sapiens, UniProt Q04759). The procedure: as §1
For assay [3], the target named is T1, protein kinases of the Z-LYTE panel (Homo sapiens, UniProt Q9NWZ3).
T1 sequence (Q9NWZ3 1-460): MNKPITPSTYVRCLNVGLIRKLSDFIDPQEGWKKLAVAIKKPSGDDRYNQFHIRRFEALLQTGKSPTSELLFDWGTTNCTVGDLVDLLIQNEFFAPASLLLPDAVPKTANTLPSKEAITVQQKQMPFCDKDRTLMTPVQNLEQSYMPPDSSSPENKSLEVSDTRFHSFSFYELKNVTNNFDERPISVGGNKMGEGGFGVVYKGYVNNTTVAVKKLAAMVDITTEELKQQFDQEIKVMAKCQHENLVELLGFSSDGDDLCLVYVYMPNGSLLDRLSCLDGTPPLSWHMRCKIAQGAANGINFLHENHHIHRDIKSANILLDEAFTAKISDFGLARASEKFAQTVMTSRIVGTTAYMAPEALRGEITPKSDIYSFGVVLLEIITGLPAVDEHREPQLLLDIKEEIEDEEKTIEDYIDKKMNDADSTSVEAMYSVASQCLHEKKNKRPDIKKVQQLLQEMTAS
The procedure:
as §1

The target of assay [4] is protein kinases of the Z-LYTE panel (Homo sapiens, UniProt P28482). The procedure: as §1
In assay [5] the target is protein kinases of the Z-LYTE panel (Homo sapiens, UniProt Q9P1W9). Here is the method:
as §1

The target in assay [6] is T2, protein kinases of the Z-LYTE panel (Homo sapiens, UniProt Q9UQB9).
T2 sequence (Q9UQB9 1-309): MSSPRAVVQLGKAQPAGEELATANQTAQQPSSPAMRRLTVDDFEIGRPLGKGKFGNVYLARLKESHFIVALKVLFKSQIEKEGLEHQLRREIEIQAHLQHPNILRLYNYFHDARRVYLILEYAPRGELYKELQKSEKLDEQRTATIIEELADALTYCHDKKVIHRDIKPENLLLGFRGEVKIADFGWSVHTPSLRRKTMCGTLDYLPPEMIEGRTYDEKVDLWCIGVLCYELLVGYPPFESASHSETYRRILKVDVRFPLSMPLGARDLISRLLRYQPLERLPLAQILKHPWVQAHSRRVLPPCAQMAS
The procedure: as §1

Assay [7] concerns the target protein kinases of the Z-LYTE panel (Homo sapiens, UniProt Q9P286). The procedure:
as §1

Assay [8] addresses protein kinases of the Z-LYTE panel (Homo sapiens, UniProt P11362). Here is the method:
as §1

Like-named read-outs stand apart in the source and are kept apart here.

Chain of protein kinases of the Z-LYTE panel (Homo sapiens, UniProt Q04759) (Q04759 whole entry): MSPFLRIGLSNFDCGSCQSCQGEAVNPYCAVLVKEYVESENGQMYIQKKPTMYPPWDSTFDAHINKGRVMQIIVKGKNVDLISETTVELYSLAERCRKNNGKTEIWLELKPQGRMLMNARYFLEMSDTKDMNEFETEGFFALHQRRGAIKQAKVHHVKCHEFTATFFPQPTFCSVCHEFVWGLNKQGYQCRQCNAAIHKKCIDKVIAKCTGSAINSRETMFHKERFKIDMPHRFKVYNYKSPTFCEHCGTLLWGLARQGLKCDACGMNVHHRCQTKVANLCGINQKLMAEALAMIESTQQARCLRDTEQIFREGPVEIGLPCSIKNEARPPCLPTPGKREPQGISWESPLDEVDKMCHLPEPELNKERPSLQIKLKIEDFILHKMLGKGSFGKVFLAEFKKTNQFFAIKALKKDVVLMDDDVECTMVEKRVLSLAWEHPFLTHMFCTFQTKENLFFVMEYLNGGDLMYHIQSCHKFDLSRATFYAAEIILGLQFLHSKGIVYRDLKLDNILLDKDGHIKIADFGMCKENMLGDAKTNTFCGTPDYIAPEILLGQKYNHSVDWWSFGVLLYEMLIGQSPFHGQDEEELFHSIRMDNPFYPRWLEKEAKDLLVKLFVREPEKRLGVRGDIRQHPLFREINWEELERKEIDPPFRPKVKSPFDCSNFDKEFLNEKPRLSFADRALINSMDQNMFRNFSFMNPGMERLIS
Chain of protein kinases of the Z-LYTE panel (Homo sapiens, UniProt P28482) (P28482 whole entry): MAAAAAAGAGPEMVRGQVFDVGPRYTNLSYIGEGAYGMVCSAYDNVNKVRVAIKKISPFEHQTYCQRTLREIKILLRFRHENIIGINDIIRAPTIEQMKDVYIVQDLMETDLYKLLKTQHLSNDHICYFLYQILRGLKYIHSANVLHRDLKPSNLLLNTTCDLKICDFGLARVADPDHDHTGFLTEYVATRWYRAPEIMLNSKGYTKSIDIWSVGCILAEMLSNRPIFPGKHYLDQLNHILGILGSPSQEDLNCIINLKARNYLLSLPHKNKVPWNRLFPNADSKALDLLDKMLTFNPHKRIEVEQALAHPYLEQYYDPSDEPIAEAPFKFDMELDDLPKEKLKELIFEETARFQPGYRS
Chain of protein kinases of the Z-LYTE panel (Homo sapiens, UniProt P11362) (P11362 22-822): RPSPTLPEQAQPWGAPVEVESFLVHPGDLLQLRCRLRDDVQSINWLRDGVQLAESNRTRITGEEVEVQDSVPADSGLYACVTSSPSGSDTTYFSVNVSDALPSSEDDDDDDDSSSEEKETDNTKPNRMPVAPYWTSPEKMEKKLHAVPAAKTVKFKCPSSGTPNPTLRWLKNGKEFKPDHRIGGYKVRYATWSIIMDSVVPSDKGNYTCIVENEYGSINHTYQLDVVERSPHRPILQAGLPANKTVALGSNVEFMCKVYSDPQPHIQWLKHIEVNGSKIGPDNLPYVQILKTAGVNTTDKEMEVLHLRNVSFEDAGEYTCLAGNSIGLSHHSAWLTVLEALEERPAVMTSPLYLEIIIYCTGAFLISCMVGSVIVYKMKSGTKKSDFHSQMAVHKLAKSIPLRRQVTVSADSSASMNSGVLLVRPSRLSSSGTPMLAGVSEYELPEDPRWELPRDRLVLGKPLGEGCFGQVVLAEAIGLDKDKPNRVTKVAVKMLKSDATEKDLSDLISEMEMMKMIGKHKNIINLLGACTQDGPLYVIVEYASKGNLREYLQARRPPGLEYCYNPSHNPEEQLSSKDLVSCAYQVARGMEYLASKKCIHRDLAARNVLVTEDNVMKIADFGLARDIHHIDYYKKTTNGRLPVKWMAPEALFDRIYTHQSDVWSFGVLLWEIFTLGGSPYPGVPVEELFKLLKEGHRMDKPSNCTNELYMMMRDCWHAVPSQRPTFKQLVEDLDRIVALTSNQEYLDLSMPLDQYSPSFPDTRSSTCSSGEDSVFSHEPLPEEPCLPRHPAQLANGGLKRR
Chain of protein kinases of the Z-LYTE panel (Homo sapiens, UniProt Q9P1W9) (Q9P1W9 whole entry): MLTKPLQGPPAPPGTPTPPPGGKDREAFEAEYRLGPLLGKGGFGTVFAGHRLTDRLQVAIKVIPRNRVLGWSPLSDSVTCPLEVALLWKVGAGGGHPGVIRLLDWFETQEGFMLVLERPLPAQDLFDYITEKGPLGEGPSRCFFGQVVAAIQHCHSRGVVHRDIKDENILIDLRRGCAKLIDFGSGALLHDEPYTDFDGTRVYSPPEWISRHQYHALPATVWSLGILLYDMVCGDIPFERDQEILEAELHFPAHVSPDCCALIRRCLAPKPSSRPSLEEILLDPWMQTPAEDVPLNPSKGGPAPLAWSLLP
Chain of protein kinases of the Z-LYTE panel (Homo sapiens, UniProt Q9P286) (Q9P286 whole entry): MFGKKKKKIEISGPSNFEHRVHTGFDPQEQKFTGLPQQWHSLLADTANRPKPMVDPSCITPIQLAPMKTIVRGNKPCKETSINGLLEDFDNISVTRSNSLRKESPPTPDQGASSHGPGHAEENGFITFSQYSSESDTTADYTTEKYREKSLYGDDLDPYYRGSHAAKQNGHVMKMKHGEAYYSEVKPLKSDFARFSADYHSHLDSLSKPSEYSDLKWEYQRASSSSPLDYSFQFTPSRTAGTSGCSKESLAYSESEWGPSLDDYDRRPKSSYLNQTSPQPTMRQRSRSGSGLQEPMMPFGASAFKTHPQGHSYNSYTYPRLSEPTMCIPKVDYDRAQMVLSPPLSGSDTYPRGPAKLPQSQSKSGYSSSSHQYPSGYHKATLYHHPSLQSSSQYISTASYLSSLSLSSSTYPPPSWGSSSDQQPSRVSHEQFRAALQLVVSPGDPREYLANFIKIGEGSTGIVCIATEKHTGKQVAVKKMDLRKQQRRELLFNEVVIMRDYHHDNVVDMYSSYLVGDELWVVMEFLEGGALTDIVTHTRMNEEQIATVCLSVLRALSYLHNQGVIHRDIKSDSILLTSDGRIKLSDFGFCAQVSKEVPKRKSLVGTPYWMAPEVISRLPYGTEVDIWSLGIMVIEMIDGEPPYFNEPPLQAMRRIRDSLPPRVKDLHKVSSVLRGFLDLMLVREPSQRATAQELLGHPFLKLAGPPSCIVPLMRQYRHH
Chain of protein kinases of the Z-LYTE panel (Homo sapiens, UniProt Q7KZI7) (Q7KZI7 whole entry): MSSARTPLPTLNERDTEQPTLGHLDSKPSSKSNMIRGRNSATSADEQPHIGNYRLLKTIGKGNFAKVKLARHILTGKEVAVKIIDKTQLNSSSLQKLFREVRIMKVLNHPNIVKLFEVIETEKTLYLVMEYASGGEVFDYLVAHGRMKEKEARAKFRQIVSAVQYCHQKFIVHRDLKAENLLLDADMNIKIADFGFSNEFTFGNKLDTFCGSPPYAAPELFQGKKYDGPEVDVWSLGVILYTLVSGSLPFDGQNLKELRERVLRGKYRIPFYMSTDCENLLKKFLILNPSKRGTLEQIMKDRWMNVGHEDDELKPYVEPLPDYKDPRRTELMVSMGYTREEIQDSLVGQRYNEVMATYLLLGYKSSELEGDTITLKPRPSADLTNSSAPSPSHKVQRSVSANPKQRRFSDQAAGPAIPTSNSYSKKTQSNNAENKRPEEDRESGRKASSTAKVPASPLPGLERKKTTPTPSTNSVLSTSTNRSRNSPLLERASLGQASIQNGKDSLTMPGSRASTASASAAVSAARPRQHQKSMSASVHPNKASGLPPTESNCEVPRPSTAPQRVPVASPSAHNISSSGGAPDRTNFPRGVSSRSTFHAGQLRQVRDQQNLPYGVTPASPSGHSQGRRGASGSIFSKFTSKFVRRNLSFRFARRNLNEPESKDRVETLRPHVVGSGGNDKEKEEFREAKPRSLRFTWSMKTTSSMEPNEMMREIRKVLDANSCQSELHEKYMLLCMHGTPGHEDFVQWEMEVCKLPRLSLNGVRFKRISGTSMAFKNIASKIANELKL

Consider `CCN1CCN(c2ccc(Nc3cc(Nc4cccc5c4N(C(C)=O)CC5)ccn3)cc2)CC1` [Compound 1938], for which the inhibition at 1 µM amounted to 6.48% in assay [1] (read-out: % Inhibition Point 1); 4% in assay [1] (read-out: % Inhibition Point 2); 5.34% in assay [1] (read-out: % Inhibition mean); 12% in assay [2] (read-out: % Inhibition Point 1); 6.62% in assay [2] (read-out: % Inhibition Point 2); 9% in assay [2] (read-out: % Inhibition mean). In addition, the inhibition at 1 µM in assay [3] (read-out: % Inhibition Point 1) is -0.0182%; in assay [3] (read-out: % Inhibition Point 2), -2.21%; in assay [3] (read-out: % Inhibition mean) it was -1.11%; in assay [4] (read-out: % Inhibition Point 1) it was -0.368%; in assay [4] (read-out: % Inhibition Point 2), 13%; in assay [4] (read-out: % Inhibition mean) it was 6.48%. Also, the inhibition at 1 µM in assay [5] (read-out: % Inhibition Point 1) stood at 2%; in assay [5] (read-out: % Inhibition Point 2), 0.0719%; in assay [5] (read-out: % Inhibition mean), 1%; in assay [6] (read-out: % Inhibition Point 1), 39%; in assay [6] (read-out: % Inhibition Point 2), 35%; in assay [6] (read-out: % Inhibition mean) it was 37%. The inhibition at 1 µM in assay [7] (read-out: % Inhibition Point 1) worked out at 0.526%; in assay [7] (read-out: % Inhibition Point 2), 3.33%; in assay [7] (read-out: % Inhibition mean) it was 2%; in assay [8] (read-out: % Inhibition Point 1), 25%; in assay [8] (read-out: % Inhibition Point 2), 23%; in assay [8] (read-out: % Inhibition mean), 24%.
